Series [1] deals with SMN2 minigene mRNA (SMN2-A minigene) in HEK293H cells. Description: SMN2 minigene mRNA splicing RT-qPCR assay in cultured cells. It counts as cell-based, human. As to conditions: Homo sapiens, HEK293-H; concentration increasing full length SMN2 mRNA 1.5-fold relative to vehicle-treated cells; HEK293H cells with SMN2-A minigene, 24 hours, 7-point concentration data; read-out: EC1.5x for production of full length SMN2 mRNA. The gist of the method: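 EC1.5× = concentration raising full-length SMN2 minigene mRNA 1.5-fold over vehicle, from 7-point curves in duplicate. Stably transfected HEK293H cells exposed 24 h at 37 °C; lysates assayed by multiplex RT-qPCR, minigene FL signal normalized to GAPDH via modified ΔΔCt.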
(Real-time PCR tracks product formation cycle by cycle.)

The subject of series [2] is Smn protein in SMA patient fibroblast cells (GM03813). Description: Smn protein assay in cultured cells (SMN HTRF). It counts as cell-based, human. As to conditions: SMA patient fibroblast cells, 48 hours; for EC1.5x for Smn protein expression: 7-point concentration curve, SMN HTRF, concentration producing 1.5 times Smn protein vs DMSO vehicle control; for maximum fold (Fold) increase of Smn protein: 7-point concentration data, fold relative to vehicle control. The gist of the method: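 Smn protein quantified by HTRF with anti-SMN d2/kryptate pair, 665/620 nm ratio blank-corrected, in RIPA lysates of GM03813 fibroblasts after 48 h compound exposure (7 concentrations, 3.16-fold steps, triplicates). Values: concentration producing 1.5× vehicle Smn level, and maximal fold increase.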
Background: Time-resolved FRET reads energy transfer from a long-lived donor to a nearby acceptor.

In general, melting point refers to the temperature of the solid-liquid transition. The compound `COCCN1CCN(c2ccc3nc(-c4cc(F)c5nc(C)cn5c4)cc(=O)n3c2)C[C@@H]1C` [Compound 538, 2-(8-fluoro-2-methylimidazo[1,2-a]pyridin-6-yl)-7-[(3S)-4-(2-methoxyethyl)-3-methylpiperazin-1-yl]-4H-pyrido[1,2-a]pyrimidin-4-one] displayed a melting point of 215 to 219 °C. The EC (1.5-fold increase) in series [1] is less than 0.1 µM. Also, in series [2], the “EC1.5x for Smn protein expression” value is “*** (an EC1.5× between >0.3 μM and ≤1 μM is indicated by three stars (***))”; the “maximum fold (Fold) increase of Smn protein” value (“maximum fold (Fold) increase” for short) was “**** (a fold increase between >1.5 and ≤1.65 is indicated by four stars (****))”.
As to `Cc1csc(-c2cc(=O)n3cc(N4CCNCC4)ccc3n2)n1` [Cpd 163, 2-(4-methyl-1,3-thiazol-2-yl)-7-(piperazin-1-yl)-4H-pyrido[1,2-a]pyrimidin-4-one], the melting point lay in the range of 142 to 147 °C. In series [1], the EC (1.5-fold increase) is 1 to 3 µM. Besides, the “maximum fold (Fold) increase” value in series [2] is “*** (a fold increase between >1.35 and ≤1.5 is indicated by three stars (***))”.
Consider `COc1ccc(-c2cc(=O)n3cc(C4=CCN(C)CC4)ccc3c2)cc1OC` [Cpd 249, 2-(3,4-dimethoxyphenyl)-7-(1-methyl-1,2,3,6-tetrahydropyridin-4-yl)-4H-quinolizin-4-one], for which the melting point was in the range of 194 to 196 °C. The EC (1.5-fold increase) in series [1] fell in the range of 0.3 to 1 µM. Moreover, the “maximum fold (Fold) increase” value in series [2] is reported as “* (A maximum fold increase of ≤1.2 is indicated by one star (*))”.
In turn, `CCc1nc(C)cn2nc(-c3cc(=O)n4cc(N5CCN(CCO)[C@H](C)C5)ccc4n3)cc12` [Compound 632, 2-(4-ethyl-6-methylpyrazolo[1,5-a]pyrazin-2-yl)-7-[(3R)-4-(2-hydroxyethyl)-3-methylpiperazin-1-yl]-4H-pyrido[1,2-a]pyrimidin-4-one] displayed a melting point of 238 to 241 °C. The EC (1.5-fold increase) in series [1] was less than 0.1 µM. Further, in series [2], the “EC1.5x for Smn protein expression” value was “**** (an EC1.5x≤0.3 μM is indicated by four stars (****))” and the “maximum fold (Fold) increase” value was “***** (a fold increase >1.65 is indicated by five stars (*****))”.
On to `COc1ccc(-c2cc(=O)n3cc(C4=CCN(C(C)C)CC4)cc(C)c3n2)cc1OC` [Compound 387, 2-(3,4-dimethoxyphenyl)-9-methyl-7-[1-(propan-2-yl)-1,2,3,6-tetrahydropyridin-4-yl]-4H-pyrido[1,2-a]pyrimidin-4-one], for which the melting point fell in the range of 153 to 163 °C. Also, the EC (1.5-fold increase) in series [1] is 0.3 to 1 µM. Besides, in series [2], the “maximum fold (Fold) increase” value was “** (a fold increase between >1.2 and ≤1.35 is indicated by two stars (**))”.
`Cc1nc2c(F)cc(-c3cc(=O)n4cc(N5CCNCC5)ccc4n3)cc2o1` [Compound 305, 2-(4-fluoro-2-methyl-1,3-benzoxazol-6-yl)-7-(piperazin-1-yl)-4H-pyrido[1,2-a]pyrimidin-4-one] showed a melting point of 184 to 186 °C. Besides, the EC (1.5-fold increase) in series [1] is less than 0.1 µM. In series [2], the “EC1.5x for Smn protein expression” value was “**** (an EC1.5x≤0.3 μM is indicated by four stars (****))” and the “maximum fold (Fold) increase” value was “***** (a fold increase >1.65 is indicated by five stars (*****))”.
Turning to `CCc1cc(-c2cc(=O)n3cc(N4CCN[C@@H](C)C4)ccc3n2)cn2cc(C)nc12` [Compound 639, 2-(8-ethyl-2-methylimidazo[1,2-a]pyridin-6-yl)-7-[(3S)-3-methylpiperazin-1-yl]-4H-pyrido[1,2-a]pyrimidin-4-one], the melting point lay within 232 to 236 °C. Besides, the EC (1.5-fold increase) in series [1] was less than 0.1 µM. Also, in series [2], the “EC1.5x for Smn protein expression” value is reported as “**** (an EC1.5x≤0.3 μM is indicated by four stars (****))” and the “maximum fold (Fold) increase” value was “***** (a fold increase >1.65 is indicated by five stars (*****))”.
With `COc1ccc(-c2cc(=O)n3cc(N4C[C@H]5CNC[C@H]5C4)ccc3n2)cc1OC` [Compound 126, 2-(3,4-dimethoxyphenyl)-7-[(3aR,6aS)-hexahydropyrrolo[3,4-c]pyrrol-2(1H)-yl]-4H-pyrido[1,2-a]pyrimidin-4-one], the melting point was in the range of 286 to 290 °C. Further, in series [1], the EC (1.5-fold increase) lay in the range of 0.1 to 0.3 µM. Besides, the “maximum fold (Fold) increase” value in series [2] was “** (a fold increase between >1.2 and ≤1.35 is indicated by two stars (**))”.
As to `CCc1nc(C)cn2nc(-c3cc(=O)n4cc(N5CCN[C@@H](C)C5)ccc4n3)cc12` [Compound 635, 2-(4-ethyl-6-methylpyrazolo[1,5-a]pyrazin-2-yl)-7-[(3S)-3-methylpiperazin-1-yl]-4H-pyrido[1,2-a]pyrimidin-4-one], the melting point lay in the range of 202 to 204 °C. Also, the EC (1.5-fold increase) in series [1] is less than 0.1 µM. Further, in series [2], the “EC1.5x for Smn protein expression” value is reported as “**** (an EC1.5x≤0.3 μM is indicated by four stars (****))” and the “maximum fold (Fold) increase” value was “***** (a fold increase >1.65 is indicated by five stars (*****))”.
`CCN1CC=C(c2ccc3nc(-c4ccc5nc(C)cn5c4)cc(=O)n3c2)CC1` [Compound 431, 7-(1-ethyl-1,2,3,6-tetrahydropyridin-4-yl)-2-(2-methylimidazo[1,2-a]pyridin-6-yl)-4H-pyrido[1,2-a]pyrimidin-4-one] came in with a melting point of 220 to 223 °C. Besides, the EC (1.5-fold increase) in series [1] is less than 0.1 µM. In series [2], the “EC1.5x for Smn protein expression” value is “**** (an EC1.5x≤0.3 μM is indicated by four stars (****))” and the “maximum fold (Fold) increase” value was “***** (a fold increase >1.65 is indicated by five stars (*****))”.
`CN1CC=C(c2ccc3nc(-c4ccc5c(cnn5C)c4)cc(=O)n3c2)CC1` [Compound 449, 2-(1-methyl-1H-indazol-5-yl)-7-(1-methyl-1,2,3,6-tetrahydropyridin-4-yl)-4H-pyrido[1,2-a]pyrimidin-4-one] returned a melting point of 148 to 150 °C. Moreover, the EC (1.5-fold increase) in series [1] is less than 0.1 µM. Moreover, in series [2], the “EC1.5x for Smn protein expression” value was “**** (an EC1.5x≤0.3 μM is indicated by four stars (****))”; the “maximum fold (Fold) increase” value was “**** (a fold increase between >1.5 and ≤1.65 is indicated by four stars (****))”.
For `COc1ccc(-c2cc(=O)n3cc(N4CCN[C@@H](C)C4)ccc3n2)cc1Cl` [Compound 111, 2-(3-chloro-4-methoxyphenyl)-7-[(3S)-3-methylpiperazin-1-yl]-4H-pyrido[1,2-a]pyrimidin-4-one], the melting point lay in the range of 187 to 189 °C. Moreover, the EC (1.5-fold increase) in series [1] was in the range of 0.1 to 0.3 µM. Further, the “maximum fold (Fold) increase” value in series [2] is “*** (a fold increase between >1.35 and ≤1.5 is indicated by three stars (***))”.
As for `CNC1CCN(c2cc(C)c3nc(-c4cc5c(C)nc(C)cn5n4)cc(=O)n3c2)CC1` [Compound 610, 2-(4,6-dimethylpyrazolo[1,5-a]pyrazin-2-yl)-9-methyl-7-[4-(methylamino)piperidin-1-yl]-4H-pyrido[1,2-a]pyrimidin-4-one], the melting point fell in the range of 218 to 227 °C. The EC (1.5-fold increase) in series [1] was less than 0.1 µM. Also, in series [2], the “EC1.5x for Smn protein expression” value is reported as “**** (an EC1.5x≤0.3 μM is indicated by four stars (****))” and the “maximum fold (Fold) increase” value is “***** (a fold increase >1.65 is indicated by five stars (*****))”.

The values are drawn from US11753407B2, “Compounds for treating spinal muscular atrophy” (PTC Therapeutics, Inc., priority 2012, dated 2023).
